Test results reported in the Kinase Knowledgebase extract (Sharma et al. 2016).

Key:
[1] = biological target: EGFR (Human), P00533 [T790M/L858R]; conditions: nci-h1975
[2] = biological target: EGFR (Human), P00533 [T790M/L858R]; conditions: nci-h1975; remark: listed apart in the source
[3] = biological target: EGFR (Human), P00533 [T790M/L858R]

Chain of EGFR (Human), P00533 [T790M/L858R] (P00533 whole entry T790M/L858R, looked up): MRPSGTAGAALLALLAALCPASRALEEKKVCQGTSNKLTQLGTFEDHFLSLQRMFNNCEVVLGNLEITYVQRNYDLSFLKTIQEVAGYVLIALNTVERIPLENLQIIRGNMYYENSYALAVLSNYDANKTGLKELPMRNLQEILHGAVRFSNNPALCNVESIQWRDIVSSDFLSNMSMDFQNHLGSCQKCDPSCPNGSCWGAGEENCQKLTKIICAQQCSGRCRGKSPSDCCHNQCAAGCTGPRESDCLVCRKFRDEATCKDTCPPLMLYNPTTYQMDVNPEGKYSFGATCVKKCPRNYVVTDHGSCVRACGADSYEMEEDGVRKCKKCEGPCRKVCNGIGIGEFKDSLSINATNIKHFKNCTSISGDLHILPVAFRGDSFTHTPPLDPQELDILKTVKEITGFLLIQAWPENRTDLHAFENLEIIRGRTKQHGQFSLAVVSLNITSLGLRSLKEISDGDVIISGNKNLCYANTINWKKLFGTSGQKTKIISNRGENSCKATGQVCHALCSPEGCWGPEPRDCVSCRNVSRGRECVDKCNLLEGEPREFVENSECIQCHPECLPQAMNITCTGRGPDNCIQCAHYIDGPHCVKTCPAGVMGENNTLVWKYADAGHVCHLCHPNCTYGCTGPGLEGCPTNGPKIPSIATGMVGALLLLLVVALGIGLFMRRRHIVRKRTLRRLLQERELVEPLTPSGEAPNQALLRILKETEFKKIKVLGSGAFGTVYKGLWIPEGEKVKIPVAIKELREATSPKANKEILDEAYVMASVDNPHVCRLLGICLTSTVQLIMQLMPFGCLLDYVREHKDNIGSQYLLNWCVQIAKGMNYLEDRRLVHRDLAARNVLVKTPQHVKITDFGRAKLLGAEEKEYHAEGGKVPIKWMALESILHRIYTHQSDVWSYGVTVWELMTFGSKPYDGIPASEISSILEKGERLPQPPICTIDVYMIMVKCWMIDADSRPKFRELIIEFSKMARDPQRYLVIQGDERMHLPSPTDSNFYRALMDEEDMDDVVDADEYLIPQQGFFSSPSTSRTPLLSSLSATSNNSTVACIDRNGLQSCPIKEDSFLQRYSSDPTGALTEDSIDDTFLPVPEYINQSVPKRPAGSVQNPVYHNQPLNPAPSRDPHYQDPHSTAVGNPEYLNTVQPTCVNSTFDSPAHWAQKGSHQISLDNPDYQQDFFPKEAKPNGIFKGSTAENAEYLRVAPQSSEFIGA

EC50 [1] [nM] | EC50 [2] [nM] | Ki [3] [nM] | Structure (SMILES)
> 10000 | > 10000 |  | CCC(C)n1nc(N2CC[C@H](O)C2=O)c2cnc(Nc3ccnc(N4CC[C@@H](O)[C@@H](F)C4)n3)cc21 (some centres undefined)
> 10000 | > 10000 |  | CC(C)n1nc(N2C[C@H](O)[C@@H](O)C2)c2cnc(Nc3ccnc(N4CCC(C)(O)CC4)n3)cc21
> 10000 | > 10000 |  | CC(C)n1nc(F)c2cnc(Nc3ccnc(-c4cnn(S(=O)(=O)C5CC5)c4)n3)cc21
> 10000 | > 10000 |  | CC(C)n1nc(NC2CNC(=O)C2)c2cnc(Nc3ccnc(N4CCC(C)(O)CC4)n3)cc21 (centres undefined)
 | 608 | < 0.6 | CC(C)n1nc(N2CCC(C(N)=O)C2)c2cnc(Nc3ccnc(-c4cnn(S(=O)(=O)C5CC5)c4)n3)cc21 (centres undefined)
> 10000 | > 10000 |  | CC1COCC(C)N1c1nn(C(C)C)c2cc(Nc3ccnc(-c4cnn(S(=O)(=O)C5CC5)c4)n3)ncc12 (centres undefined)
 | 1260 |  | CC(C)n1nc(N2CCOCC2)c2cnc(Nc3ccnc(NCC(C)(C)S(C)(=O)=O)n3)cc21
 | 1640 |  | CC(C)n1nc(NC2CCS(=O)(=O)C2)c2cnc(Nc3ccnc(-c4cnn(S(=O)(=O)C5CC5)c4)n3)cc21 (centres undefined)
 | 660 |  | CC(C)n1nc(N2CC(O)(CO)C2)c2cnc(Nc3ccnc(-c4cnn(S(=O)(=O)C5CC5)c4)n3)cc21
20.9 | 211 | 1 | COCC1CN(c2nn(C(C)C)c3cc(Nc4ccnc(-c5cnn(S(=O)(=O)C6CC6)c5)n4)ncc23)C1
 | 1600 |  | CCC(C)n1nc(N2CC(F)(F)C2)c2cnc(Nc3ccnc(N4CCC(C)(O)CC4)n3)cc21 (centres undefined)
 | 1710 |  | Cc1cn[nH]c1-c1nn(C(C)C)c2cc(Nc3ccnc(N4CCC(O)C(C)(C)C4)n3)ncc12 (centres undefined)
 | > 10000 |  | CC(C)n1nc(NCCC2OCC(N)CO2)c2cnc(Nc3ccnc(N4CCC(C)(O)CC4)n3)cc21 (centres undefined)
 | 825 |  | CC(C)NC(=O)C1CN(c2nn(C(C)C)c3cc(Nc4ccnc(-c5cnn(S(=O)(=O)C6CC6)c5)n4)ncc23)C1
 | 761 |  | CCC(C)n1nc(N2CC(N)C(F)(F)C2)c2cnc(Nc3ccnc(N4CCC(C)(O)CC4)n3)cc21 (centres undefined)
 | 3970 |  | CC(C)n1nc(NCCC(N)=O)c2cnc(Nc3ccnc(-c4cnn(S(=O)(=O)C5CC5)c4)n3)cc21
